Experimental data as given in patent US5004756A, “Anti-cancer activity potentiator” (priority 1988, dated 1991).
≈ marks a conversion by molar mass, not a printed value. *1 amine or outer side, *2 acyl side, *3 side chain or, on linkers, in order; H or OH if unused. Where a SMILES comes first, the peptide text is derived from it. Bridges are numbered along the chain shown (N, C = ends). Roman numbers before positions name the chains, in order. [ ]: non-standard residue; d: D form. Actinocin(9to1) = Cc1c2oc3c(C)ccc(C(=O)[*:1])c3nc-2c(C(=O)[*:2])c(N)c1=O; NMeV = CN[C@H](C(=O)O)C(C)C; Sar = CNCC(=O)O

Columns and labels:
[1] = system: V79/S; test: Anti-cancer activity potentiating action, colony formation, V79/S parent cells (A-III); assay type: cell-based, Chinese hamster; settings: for IC50: Cricetulus griseus
Protocol: (§1) The anti-cancer activity potentiating action of the malate of formula (I) was examined using Chinese hamster cells (sensitive cell line V79/S and ADM-resistant cell line V79/ADM), human hepatoma cells (sensitive cell line PLC/S and colchicin-resistant cell line PLC/Col) and mouse leukemia cells (sensitive cell line L5178Y/S) and aclarubicin-resistant cell line L5178Y/ACR).
(§2) Of these tumor cells, the sensitive cells (400 cells) and the resistant cells (600 cells) were each incubated in 10 ml of Eagle's MEM medium containing 10% bovine serum for 24 hours, and then each of the test drugs indicated in Table 6 was added. Thereafter, the incubation was carried out for 9 days. The concentration (IC50 : micrograms/ml) of the test drug required to inhibit 50% of the colony formation (proliferation) of the tumor cells was calculated.
(§3) (A) Chinese hamster V79 cells
(§4) As anti-cancer agents, there were used adriamycin (ADM), aclarubicin (ACR), actinomycin D (ACD), 5-fluorouracil (5-FU), cytarabin (Ara-C), cisplatin (CDDP), methotrexate (MTX), mitomycin C (MMC), nimustine (ACNU), mitoxantrone, etoposide ([…]), vincristine (VCR), bleomycin (BLM) and peplomycin (PEP). For the sensitive cells, the anti-cancer agents were used in combination with 10 micrograms/ml of the malate of formula (I), and for the resistant cells, the anti-cancer agents were used in combination with the malate of formula (I) 3 micrograms/ml, 5 micrograms/ml, and 10 micrograms/ ml.

[2] = system: V79/ADM; test: Anti-cancer activity potentiating action, colony formation, V79/ADM resistant cells (A-III); assay type: cell-based, Chinese hamster; settings: for IC50: Cricetulus griseus
Protocol: as §1, §2, §3, §4

[3] = system: clinically isolated human cancer cells (lung adenocarcinoma, lung squamous cell carcinoma, osteosarcoma, ovarian carcinoma); test: Anti-tumor activity on clinically isolated human cancer cells, morphological changes (A-I Part 2); assay type: cell-based
Protocol: Lung adenocarcinoma, lung squamous cell carcinoma, osteosarcoma and ovarian carcinoma were selected as clinically isolated human cancer cells, and the anti-tumor activities of various drugs were examined. Specifically, various tumor tissues were individually cut to thin pieces by a razor, and by washing in saline by using a 1 mm mesh, the connective tissues were removed. The resulting solution was centrifuged at 1000 rpm for 1 minute to remove necrotizing substances. Washing with saline gave tumor cells.
They were incubated at 37° for 4 to 8 hours. Thereafter, pumping was carried out to disperse the tissue pieces. Then, centrifugation at 1000 rpm for 5 minutes, cell coating and Giemsa staining were performed. The anti-tumor activity of each drug was examined on the basis of observation of the morphological changes of the tumor cells under a microscope.
The experiment was conducted on two examples of each tumor cells (total 8 examples).

[4] = system: V79/S; test: Colony formation (proliferation) inhibition, sensitive Chinese hamster cells (A-I Part 1); assay type: cell-based; settings: Cricetulus griseus, 216 h
Protocol: (§5) Sensitive cell line V79/S and ADM-resistant cell line V79/ADM of the Chinese hamster were used, and sensitive cell line PLC/S and cholchicin-resistant cell line PLC/Col, as human hepatoma cells.
(§6) The sensitive cell lines (400 cells) or the resistant cell lines (600 cells) were each incubated for 24 hours in 10 ml of Eagle's MEM medium containing 10% bovine serum. Each of the drugs indicated in Table 1 below was dissolved in ethanol, and 50 microliters of the resulting solution was added to the medium. The incubation was further carried out for 9 days. The concentration of the drug which inhibits 50% of the colony formation (proliferation) of the tumor cells was calculated.
(§7) V79/S and V79/ADM were tested by using all of the drugs described above, but PLC/S and PLC/Col were tested by using only the malate of formula (I), adriamycin and peplomycin.
(§8) The concentrations (micrograms/ml) required to inhibit 50% of the proliferation of the tumor cells, expressed by IC50, are shown in Table 1.

[5] = system: V79/ADM; test: Colony formation (proliferation) inhibition, ADM-resistant Chinese hamster cells (A-I Part 1); assay type: cell-based; settings: Cricetulus griseus, 216 h
Protocol: as §5, §6, §7, §8

[6] = V79/S, alone, Table 6, read-out: IC50, anti-cancer agent alone
[7] = V79/S, with compound (I) 10 μg/ml, read-out: IC50 in combination with compound (I)
[8] = V79/S, with compound (I) 10 μg/ml
[9] = V79/ADM, alone, Table 6, read-out: IC50, anti-cancer agent alone
[10] = V79/ADM, with compound (I) 5 μg/ml, read-out: IC50 in combination with compound (I)
[11] = V79/ADM, with compound (I) 5 μg/ml
[12] = read-out: IC50, anti-cancer agent alone
[13] = read-out: IC50 in combination with compound (I)

SMILES | IC50 [1, 6] | IC50 [1, 7] | Potentiation activity [1, 8] | IC50 [2, 9] | IC50 [2, 10] | Potentiation activity [2, 11] | further results
O=c1[nH]cc(F)c(=O)[nH]1 [Example 5-FU, 5-fluorouracil] | 9700 nM | 2100 nM | 4.6 times | 7200 nM | 620 nM | 11.6 times | Efficacy ratio (rated significant by Fisher's test) ([3]; 10 μg/ml): 1/8
CN(Cc1cnc2nc(N)nc(N)c2n1)c1ccc(C(=O)N[C@@H](CCC(=O)O)C(=O)O)cc1 [MTX, methotrexate] | 0.014 µg/mL | 0.017 µg/mL | 0.8 times | 0.0078 µg/mL | < 0.0025 µg/mL | > 3.12 times | IC50 [4]: 0.017 µg/mL (≈ 0.0374 µM); IC50 [5]: 0.0078 µg/mL (≈ 0.0172 µM); Efficacy ratio (rated significant by Fisher's test) ([3]; 3.0 μg/ml): 1/8
N[C@@H](Cc1ccc(N(CCCl)CCCl)cc1)C(=O)O [MPL, melphalan] |  |  |  |  |  |  | Efficacy ratio (rated significant by Fisher's test) ([3]; 0.5 μg/ml): 1/8
Cc1c2oc3c(C)ccc(C(=O)N[C@@H]4C(=O)N[C@H](C(C)C)C(=O)N5CCC[C@H]5C(=O)N(C)CC(=O)N(C)[C@@H](C(C)C)C(=O)O[C@@H]4C)c3nc-2c(C(=O)N[C@@H]2C(=O)N[C@H](C(C)C)C(=O)N3CCC[C@H]3C(=O)N(C)CC(=O)N(C)[C@@H](C(C)C)C(=O)O[C@@H]2C)c(N)c1=O [ACD, actinomycin D] (I: T[dV]P[Sar][NMeV] / II: T[dV]P[Sar][NMeV]; ester I:1-I:C, II:1-II:C; linker I:N-II:N via Actinocin(9to1)) |  |  | 5.3 times |  |  |  | IC50 [4]: 0.017 µg/mL (≈ 0.0135 µM); IC50 [1, 12]: 0.017 µg/mL; IC50 [1, 13]: 0.0032 µg/mL; IC50 [5]: 0.28 µg/mL (≈ 0.223 µM); IC50 [2, 12]: 0.28 µg/mL; IC50 [2, 13]: 0.0063 µg/mL; Potentiation activity ([2]; V79/ADM, with compound (I) 10 μg/ml): 44.4 times; Efficacy ratio (rated significant by Fisher's test) ([3]; 0.01 μg/ml): 0/8
O=C1c2c(O)ccc(O)c2C(=O)c2c(NCCNCCO)ccc(NCCNCCO)c21 [Mitoxantrone, mitoxantrone] | 0.019 µg/mL | 0.0081 µg/mL | 2.3 times | 0.36 µg/mL |  |  | IC50 ([4]; V79/S, 9 days, Table 1, read-out: IC50): 0.019 µg/mL (≈ 0.0427 µM); IC50 ([5]; V79/ADM, 9 days, Table 1, read-out: IC50): 0.36 µg/mL (≈ 0.81 µM); IC50 ([2]; V79/ADM, with compound (I) 3 μg/ml, read-out: IC50 in combination with compound (I)): 0.074 µg/mL; Potentiation activity ([2]; V79/ADM, with compound (I) 3 μg/ml): 4.9 times
O=P1(N(CCCl)CCCl)NCCCO1 (stereo not drawn) [CPM] |  |  |  |  |  |  | Efficacy ratio (rated significant by Fisher's test) ([3]; 10 μg/ml): 3/8
CC[C@]1(O)C[C@@H]2CN(CCc3c([nH]c4ccccc34)[C@@](C(=O)OC)(c3cc4c(cc3OC)N(C)[C@H]3[C@@](O)(C(=O)OC)[C@H](OC(C)=O)[C@]5(CC)C=CCN6CC[C@]43[C@@H]65)C2)C1 [VLB, vinblastine] |  |  |  |  |  |  | Efficacy ratio (rated significant by Fisher's test) ([3]; 0.1 μg/ml): 3/8
Nc1ccn([C@@H]2O[C@H](CO)[C@@H](O)[C@@H]2O)c(=O)n1 [Ara-C, cytarabin] | 76 nM | 54 nM | 1.4 times | 220 nM | 35 nM | 6.3 times | 
